In patent publication US20070066672A1, “Benzimidazole derivatives and use thereof as peptide deformylase inhibitors” (Arpida A/S, priority 2003, published 2007):

Tests used:
[1] = biological target: T1, Peptide Deformylase (PDF) (Staphylococcus aureus, UniProt P68826); assay: Bacterial peptide deformylase (PDF) assay, colorimetric cell free, enzyme from S. aureus; type: biochemical; details: f-Met-Ala substrate, TNBS detection at 420 nm
T1 construct: made in house
T1 sequence (P68826 1-183): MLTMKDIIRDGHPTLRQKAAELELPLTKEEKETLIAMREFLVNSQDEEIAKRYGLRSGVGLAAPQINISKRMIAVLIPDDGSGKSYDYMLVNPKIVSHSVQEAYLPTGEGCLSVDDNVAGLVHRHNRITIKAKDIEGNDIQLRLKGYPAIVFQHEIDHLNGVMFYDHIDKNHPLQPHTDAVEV
Excerpt: (§1) To find inhibitors of Peptide Deformylase (PDF), a colorimetric cell free assay for measuring the enzymatic activity of PDF has been adapted to the microtiter plate format (96 wells). The assay comprises three components, purified PDF, f-Met-Ala as substrate and TNBS as the detecting agent of primary amino groups. The resulting TNP_NH-Met-Ala sulfite complex can be detected at 420 nm. PDF enzymes, containing Fe^2+ as the native metal, are purified and are stabilized by the addition of tris(2-carboxyethyl)phosphine (TCEP).
(§2) The IC50 value of a compound of the invention as a bacterial PDF inhibitor was determined using the following assay.
(§3) Assay buffer 0.1 M MOPS pH was adjusted to 7.2 with NaOH, containing 0.25 M NaCl, 100 μg/mL catalase and 1 mg/mL BSA.
(§4) E. coli enzyme (2.5 mg/ml) 10 μl+290 μl Assay buffer, 1 μl per ml enzyme mix. S. aureus (15 mg/ml) 10 μl+990 μl Assay buffer, 0.3 μl per ml enzyme mix.
(§5) Substrate mix: 10 mM f-Met-Ala was made up from 200 mM f-Met-Ala in methanol with assay buffer.
(§6) TNBS solution: Freshly dilute 1 M TNBS stock solution diluted 1:10 with water.
(§7) Buffer C: 0.5 M borate buffer adjusted to pH 9.5 with NaOH.
(§8) Buffer D: 0.2 ml of freshly prepared 0.5 M Na2SO3 was mixed with 9.8 mL of 0.5M NaH2PO4.
(§9) Inhibitor solution: 2 mM Sodium 4-(hydroxymercurio)benzoate in assay buffer.
(§10) Compound mix: Compound of formula I dissolved in DMSO in a 10 mg/mL stock solution. Further dilutions were made in DMSO in the concentration range between 0.05 to 100 mM.
(§11) The assay was performed in a 96 Microtiter plate containing test compound. To each well containing test compound mix was added 75 microliter of enzyme mix from E. coli followed by the addition of 25 microliter of substrate mix. The resulting mix was incubated for 30 minutes at room temperature with shaking. TNBS solution (50 microliter/well) was added and the resulting mixture was incubated for 15 minutes under shaking. Buffer C was then added (20 microliter/well). After incubating at room temperature for 15 minutes under shaking, buffer D was added (50 microliter/well). The optical […] was then measured at 420 nm, thereby determining the IC50 value.
The assay was repeated using enzyme mix from S. aureus.

[2] = biological target: T2, Peptide Deformylase (PDF) (Escherichia coli, UniProt P0A6K3); assay: Bacterial peptide deformylase (PDF) assay, colorimetric cell free, enzyme from E. coli; type: biochemical
T2 construct: made in house
T2 sequence (P0A6K3 whole entry): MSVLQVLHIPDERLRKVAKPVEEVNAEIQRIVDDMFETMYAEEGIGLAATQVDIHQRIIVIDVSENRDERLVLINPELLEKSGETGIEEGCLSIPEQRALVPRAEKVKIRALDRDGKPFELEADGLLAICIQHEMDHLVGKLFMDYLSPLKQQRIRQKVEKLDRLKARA
Excerpt: as §1, §2, §3, §4, §5, §6, §7, §8, §9, §10, §11

Row | SMILES | IC50 [1] | IC50 [2]
1 | CCCCn1c(C(Cc2ccccc2)NC(=O)CCC(=O)NO)nc2cc(C(=O)NCC(=O)OC)ccc21 (stereo not drawn) [Example 47, ({1-Butyl-2-[1-(3-hydroxycarbamoyl-propionylamino)-2-phenyl-ethyl]-1H-benzoimidazole-5-carbonyl}-amino)-acetic acid methyl ester] | 0.019 µM | 5.3 µM
2 | CCCCn1c(C(CC(C)C)NC(=O)CCC(=O)NO)nc2cc(C(=O)NCC(=O)OC)ccc21 (stereo not drawn) [Example 34, ({1-Butyl-2-[1-(3-hydroxycarbamoyl-propionylamino)-3-methyl-butyl]-1H-benzoimidazole-5-carbonyl}-amino)-acetic acid methyl ester] | 2.27 µM | 
3 | COC(=O)CNC(=O)c1ccc2c(c1)nc(C(Cc1ccc(O)cc1)NC(=O)CCS)n2CC1CCCCC1 (stereo not drawn) [Example 21, ({1-Cyclohexylmethyl-2-[2-(4-hydroxy-phenyl)-1-(3-mercapto-propionylamino)-ethyl]-1H-benzoimidazole-5-carbonyl}-amino)-acetic acid methyl ester] | > 200 µM | > 200 µM
4 | COC(=O)CNC(=O)c1ccc2c(c1)nc(C(Cc1ccc(O)cc1)NC(=O)CCC(=O)O)n2CC1CCCCC1 (stereo not drawn) [Example 26, N-[1-[1-Cyclohexylmethyl-5-(methoxycarbonylmethyl-carbamoyl)-1H-benzoimidazol-2-yl]-2-(4-hydroxyphenyl)-ethyl]-succinamic acid] | 25 µM | 35.2 µM
5 | CCC(NC(=O)CCS)c1nc2cc(C(=O)NCC(=O)OC)ccc2n1C1CC1 (stereo not drawn) [Example 1, ({1-Cyclopropyl-2-[1-(3-mercapto-propionylamino)-propyl]-1H-benzoimidazole-5-carbonyl}-amino)-acetic acid methyl ester] | 45.4 µM | 65 µM
6 | COC(=O)CNC(=O)c1ccc2c(c1)nc(C(CCSC)NC(=O)CCC(=O)NO)n2C1CC1 (stereo not drawn) [Example 36, ({1-Cyclopropyl-2-[1-(3-hydroxycarbamoyl-propionylamino)-3-methylsulfanyl-propyl]-1H-benzoimidazole-5-carbonyl}-amino)-acetic acid methyl ester] | 1.5 µM | 
7 | COC(=O)CNC(=O)c1ccc2c(c1)nc(C(CC(C)C)NC(=O)CCC(=O)O)n2Cc1ccccc1 (stereo not drawn) [Example 15, N-{1-[1-Benzyl-5-(methoxycarbonylmethyl-carbamoyl)-1H-benzoimidazol-2-yl]-3-methyl-butyl}-succinamic acid] | 4 µM | 3.3 µM
8 | CCCCn1c(C(Cc2ccccc2)NC(=O)CCC(=O)O)nc2cc(C(=O)NCC(=O)OC)ccc21 (stereo not drawn) [Example 4, N-{1-[1-Butyl-5-(methoxycarbonylmethyl-carbamoyl)-1H-benzoimidazol-2-yl]-2-phenyl-ethyl}-succinamic acid] | 1 µM | 2.8 µM
9 | COC(=O)CNC(=O)c1ccc2c(c1)nc(C(CCSC)NC(=O)CCC(=O)O)n2C1CC1 (stereo not drawn) [Example 16, N-{1-[1-Cyclopropyl-5-(methoxycarbonylmethyl-carbamoyl)-1H-benzoimidazol-2-yl]-3-methylsulfanyl-propyl}-succinamic acid] | 17.6 µM | 47.2 µM
10 | COC(=O)CNC(=O)c1ccc2c(c1)nc(C(CCc1ccccc1)NC(=O)CCC(=O)O)n2Cc1ccccc1Cl (stereo not drawn) [Example 9, N-{1-[1-(2-Chloro-benzyl)-5-(methoxycarbonylmethyl-carbamoyl)-1H-benzoimidazol-2-yl]-3-phenyl-propyl}-succinamic acid] | 18 µM | 27.8 µM
11 | COC(=O)CNC(=O)c1ccc2c(c1)nc(C(Cc1ccccc1)NC(=O)CCS)n2Cc1ccc(Cl)cc1 (stereo not drawn) [Example 2, ({1-(4-Chloro-benzyl)-2-[1-(3-mercapto-propionylamino)-2-phenyl-ethyl]-1H-benzoimidazole-5-carbonyl}-amino)-acetic acid methyl ester] | 6.1 µM | 22.1 µM
12 | CCCCn1c(C(CC(C)C)NC(=O)CCC(=O)O)nc2cc(C(=O)NCC(=O)OC)ccc21 (stereo not drawn) [Example 14, N-{1-[1-Butyl-5-(methoxycarbonylmethyl-carbamoyl)-1H-benzoimidazol-2-yl]-3-methyl-butyl}-succinamic acid] | 2.6 µM | 7.3 µM
13 | COC(=O)CNC(=O)c1ccc2c(c1)nc(C(Cc1cccc3ccccc13)NC(=O)CCC(=O)NO)n2CCc1cccs1 (stereo not drawn) [Example 44, {[2-[1-(3-Hydroxycarbamoyl-propionylamino)-2-naphthalen-1-yl-ethyl]-1-(2-thiophen-2-yl-ethyl)-1H-benzoimidazole-5-carbonyl]-amino}-acetic acid methyl ester] |  | 3.1 µM
14 | COC(=O)CNC(=O)c1ccc2c(c1)nc(C(CCc1ccccc1)NC(=O)CCC(=O)O)n2CC1CCCCC1 (stereo not drawn) [Example 8, N-{1-[1-Cyclohexylmethyl-5-(methoxycarbonylmethyl-carbamoyl)-1H-benzoimidazol-2-yl]-3-phenyl-propyl}-succinamic acid] | 15.1 µM | 29.8 µM
15 | COC(=O)CNC(=O)c1ccc2c(c1)nc(C(CCSC)NC(=O)CCC(=O)O)n2Cc1ccccc1 (stereo not drawn) [Example 3, N-{1-[1-Benzyl-5-(methoxycarbonylmethyl-carbamoyl)-1H-benzoimidazol-2-yl]-3-methylsulfanyl-propyl}-succinamic acid] | 31.4 µM | 80 µM
16 | COC(=O)CNC(=O)c1ccc2c(c1)nc(C(CC(C)C)NC(=O)CCC(=O)NO)n2C1CC1 (stereo not drawn) [Example 33, ({1-Cyclopropyl-2-[1-(3-hydroxycarbamoyl-propionylamino)-3-methyl-butyl]-1H-benzoimidazole-5-carbonyl}-amino)-acetic acid methyl ester] | 0.496 µM | 
17 | COC(=O)CNC(=O)c1ccc2c(c1)nc(C(CCSC)NC(=O)CCC(=O)NO)n2CC1CCCCC1 (stereo not drawn) [Example 37, ({1-Cyclohexylmethyl-2-[1-(3-hydroxycarbamoyl-propionylamino)-3-methylsulfanyl-propyl]-1H-benzoimidazole-5-carbonyl}-amino)-acetic acid methyl ester] |  | 0.317 µM
18 | CCCCn1c(C(Cc2cccc3ccccc23)NC(=O)CCC(=O)NO)nc2cc(C(=O)NCC(=O)OC)ccc21 (stereo not drawn) [Example 45, ({1-Butyl-2-[1-(3-hydroxycarbamoyl-propionylamino)-2-naphthalen-1-yl-ethyl]-1H-benzoimidazole-5-carbonyl}-amino)-acetic acid methyl ester] |  | 5.8 µM
19 | COC(=O)CNC(=O)c1ccc2c(c1)nc(C(Cc1ccccc1)NC(=O)CCC(=O)NO)n2Cc1ccco1 (stereo not drawn) [Example 39, ({1-Furan-2-ylmethyl-2-[1-(3-hydroxycarbamoyl-propionylamino)-2-phenyl-ethyl]-1H-benzoimidazole-5-carbonyl}-amino)-acetic acid methyl ester] |  | 1.5 µM
20 | COC(=O)CNC(=O)c1ccc2c(c1)nc(C(CC(C)C)NC(=O)CCC(=O)NO)n2Cc1ccccc1 (stereo not drawn) [Example 35, ({1-Benzyl-2-[1-(3-hydroxycarbamoyl-propionylamino)-3-methyl-butyl]-1H-benzoimidazole-5-carbonyl}-amino)-acetic acid methyl ester] | 0.804 µM | 
21 | COC(=O)CNC(=O)c1ccc2c(c1)nc(C(Cc1cccc3ccccc13)NC(=O)CCC(=O)O)n2Cc1ccccc1 (stereo not drawn) [Example 30, N-{1-[1-Benzyl-5-(methoxycarbonylmethyl-carbamoyl)-1H-benzoimidazol-2-yl]-2-naphthalen-1-yl-ethyl}-succinamic acid] |  | 7 µM
